Results: PMC3111455, “Matrix Metalloproteinase-8 Mediates the Unfavorable Systemic Impact of Local Irradiation on Pharmacokinetics of Anti-Cancer Drug 5-Fluorouracil” (PLoS ONE, 2011)
Read-outs that look alike come from different tables or passages of the source. Blank lines part the entries; values can stand above or below the compound they belong to.

Assays:
[1] = Plasma pharmacokinetics of 5-FU in rats after whole pelvic irradiation; type: in vivo, Sprague-Dawley rats; settings: for AUC / Cmax / MRT / clearance / half-life / Vd: Sprague-Dawley, rat, iv, 100 mg/kg, 5-FU 100 mg/kg i.v.; for Vd: read-out: Vss
Procedure: The rats were anesthetized with urethane 1 g/ml and α-chloralose 0.1 g/ml (1 ml/kg by intraperitoneal injection), and were immobilized on a board when undergoing computed tomography for simulation of the whole pelvic field. The cranial margin was set at the top of the bilateral iliac crests for the whole pelvic field (Fig. 7). Conventional radiotherapy was used to deliver the radiation dose via the anterior-posterior (AP) and PA portals. The experimental animals were randomized to the control, 2-Gy alone, 5-FU alone, 0.5-Gy followed by 5-FU, and 2-Gy followed by 5-FU groups. Each group's data was collected from six rats.
(§1) Twenty hours after RT, the rats were administered 100 mg/kg of 5-FU in 2 mL of normal saline by intravenous infusion into the femoral vein over a 2-min period. A 150-µL blood sample was withdrawn from the jugular vein with a fraction collector according to a programmed schedule at 5, 15, 30, 45, and 60 min, and 1.5, 2, 2.5, and 3 h following drug administration. The blood samples were immediately centrifuged at 3300×g for 10 min. The resulting plasma (50 µL) was added to 1 mL of ethyl acetate in a clean tube, vortexed for 5 min, and centrifuged at 5900×g for 10 min. After centrifugation, the upper organic layer containing the ethyl acetate was transferred to a new tube and evaporated to dryness under flowing nitrogen. The dried residue was reconstituted with 50 µL of Milli-Q water (Millipore). A 20-µL aliquot of the solution was injected to the high performance liquid chromatography-ultraviolet (HPLC-UV) detection system.
(§2) Chromatographic analysis was performed on a Model LC-20AT HPLC system (Shimadzu, Tokyo, Japan) equipped with a Model SPD-20A wavelength UV detector, SIL-20AC autosampler, and an LC Solution data processing system. A LiChroCART RP-18e column (Purospher, 250 mm, 5 µm, Merck, Darmstadt, Germany) with a LiChroCART 4-4 guard column was used for separation. The mobile phase comprised […] potassium phosphate-methanol (99∶1, v/v, pH 4.5 adjusted by 85% phosphoric acid), and the flow rate of the mobile phase was 1 ml/min. The detection wavelength was set at 266 nm. Under these conditions, the retention time of 5-FU was 5.4 min. […] Good linearity was achieved over the range of 0.01–5 µg/ml, with all coefficients of correlation greater than 0.998. All samples were freshly prepared, including the standard solutions, from the same stock solution (5 mg/mL). The 0.01-µg/mL limit of quantification was defined the lowest concentration on the calibration curve that could be measured routinely with acceptable bias and relative SD. The overall mean precision, defined by the relative SD, ranged from 0.2% to 11.0%. Analytical accuracy was expressed as the percentage difference of the mean observed values compared to known concentrations varying from −10.0% to 14.0%. The recovery results for concentrations of 0.1–10 µg/mL were 92.0%–94.0%
(§3) Pharmacokinetic parameters including the AUC for concentration versus time, terminal elimination phase t1/2, Cmax, MRT, total plasma clearance and Vss were calculated using the pharmacokinetics calculation software WinNonlin Standard Edition, Version 1.1 (Scientific Consulting, Apex, NC, USA) using a compartmental method.

[2] = Bile pharmacokinetics of 5-FU in rats after whole pelvic irradiation; type: in vivo, Sprague-Dawley rats; settings: for AUC / Cmax / MRT / clearance / half-life / Vd: Sprague-Dawley, rat, iv, 100 mg/kg, 5-FU 100 mg/kg i.v.; for Vd: read-out: Vss
[3] = Plasma pharmacokinetics of 5-FU in rats with or without MMP-8 inhibitor before whole pelvic irradiation 2 Gy; type: in vivo, Sprague-Dawley rats; settings: for AUC / Cmax / MRT / clearance / half-life / Vd: Sprague-Dawley, rat, iv, 100 mg/kg, 5-FU 100 mg/kg i.v.; for Vd: read-out: Vss
Procedure: as §1, §2
MMP-8 inhibitor I (Calbiochem, La Jolla, CA) was administered to the rats to examine whether or not RT modulation of 5-FU pharmacokinetic parameters could be blocked. Briefly, MMP-8 inhibitor I was dissolved in PEG400/ethanol [4∶1 (v/v)] solution, yielding a final concentrations of 5 mg/mL. Two hours before irradiation, 10 mg/kg of MMP-8 inhibitor I was infused into the rat's tail vein over a 2-min period. After that, the rats were anesthetized with urethane 1 g/ml and α-chloralose 0.1 g/ml (1 ml/ kg by intraperitoneal injection), and were immobilized on a board to undergo computed tomography for simulation of the whole pelvic field and received irradiation, as described previously. The experimental animals were randomized to control without PEG400/ethanol [4∶1 (v/v)] solution (0 Gy), control with solvent (0 Gy), whole pelvic irradiation (2 Gy) with solvent and whole pelvic irradiation (2 Gy) with MMP-8 inhibitor and solvent groups, respectively. After RT sham RT 20 hrs, all rats received 5-FU (100 mg/kg) injections and the pharmacokinetic parameters of 5-FU were analyzed. Each group's data was collected from four rats.
as §3

[4] = test system: alanine aminotransferase (ALT); assay: Evaluation of hepatic function (plasma ALT); type: in vivo; settings: rats
Procedure: The plasma levels of alanine aminotransferase (ALT) were measured to check the influence of different modalities for hepatic function by a standard colorimetric method using a Synchron LX20 spectrophotometer (Beckman Coulter) and manufacturer-supplied reagents.

[5] = design: method as in PMID 9188061; settings: rats, mean ± SD, cited from earlier work
[6] = cited from earlier work
HepG2 [7] = assay: Intracellular 5-FU levels with or without recombinant MMP-8 by HPLC; type: cell-based, Human; settings: 10 µg/mL recombinant MMP-8 plus 50 µM 5-FU vs 50 µM 5-FU alone, up to 60 min
Procedure: as §2, with “92.0%–94.0% […]” for “92.0%–94.0%”

HepG2 [8] = assay: Viability/toxicity of 5-FU-treated HepG2 with or without recombinant MMP-8; type: cell-based, Human; settings: 5-FU-treated with or without recombinant MMP-8, data not shown
[9] = whole pelvic irradiation 0.5 Gy
[10] = plasma, controls without solvent
[11] = plasma, whole pelvic irradiation 2 Gy with solvent
[12] = plasma, plasma, whole pelvic irradiation 2 Gy with solvent and MMP-8 inhibitor (10 mg/kg, 2 h before irradiation)
[13] = MMP-8 inhibitor 10 mg/kg 2 h before 2 Gy

reduction of the AUC of 5-FU by pelvic irradiation ([1]; 0.5 Gy vs non-irradiated controls, P = 0.019): 17.6%
reduction of the AUC of 5-FU by pelvic irradiation ([1]; 2 Gy vs non-irradiated controls, P = 0.008): 21.5%
AUC ([1]; controls 0 Gy): 78800 ng·h/mL
Cmax ([1]; controls 0 Gy): 164 ± 36 µg/mL
MRT ([1]; controls 0 Gy): 36.5 min
clearance ([1]; controls 0 Gy): 21.3 ± 1.9 mL/min/kg
half-life ([1]; controls 0 Gy): 34.7 ± 9.6 min
Vd ([1]; controls 0 Gy): 0.778 ± 0.088 L/kg
AUC [1, 9]: 64900 ng·h/mL
Cmax [1, 9]: 167 ± 23 µg/mL
MRT [1, 9]: 30.9 min
clearance [1, 9]: 25.8 ± 2 mL/min/kg
half-life [1, 9]: 24.7 ± 3.5 min
Vd [1, 9]: 0.775 ± 0.116 L/kg
AUC ([1]; whole pelvic irradiation 2 Gy): 61900 ng·h/mL
Cmax ([1]; whole pelvic irradiation 2 Gy): 179 ± 19 µg/mL
MRT ([1]; whole pelvic irradiation 2 Gy): 25 min
clearance ([1]; whole pelvic irradiation 2 Gy): 27.3 ± 3.6 mL/min/kg
half-life ([1]; whole pelvic irradiation 2 Gy): 29.9 ± 7.1 min
Vd ([1]; whole pelvic irradiation 2 Gy): 0.67 ± 0.06 L/kg
increase of the AUC of 5-FU in bile by pelvic irradiation ([2]; 0.5 Gy vs non-irradiated controls): 25.1%
increase of the AUC of 5-FU in bile by pelvic irradiation ([2]; 2 Gy vs non-irradiated controls): 30.6%
AUC ([2]; controls 0 Gy): 19700 ng·h/mL
Cmax ([2]; controls 0 Gy): 129 ± 22 µg/mL
MRT ([2]; controls 0 Gy): 8.9 min
clearance ([2]; controls 0 Gy): 84.8 ± 3.6 mL/min/kg
half-life ([2]; controls 0 Gy): 9.2 ± 0.4 min
Vd ([2]; controls 0 Gy): 0.754 ± 0.102 L/kg
AUC [2, 9]: 24600 ng·h/mL
Cmax [2, 9]: 120 ± 14 µg/mL
MRT [2, 9]: 11.1 min
clearance [2, 9]: 67.9 ± 3.6 mL/min/kg
half-life [2, 9]: 10.3 ± 0.5 min
Vd [2, 9]: 0.753 ± 0.025 L/kg
AUC ([2]; whole pelvic irradiation 2 Gy): 25700 ng·h/mL
Cmax ([2]; whole pelvic irradiation 2 Gy): 93 ± 6 µg/mL
MRT ([2]; whole pelvic irradiation 2 Gy): 13.9 min
clearance ([2]; whole pelvic irradiation 2 Gy): 65.1 ± 4.3 mL/min/kg
half-life ([2]; whole pelvic irradiation 2 Gy): 12.9 ± 2.8 min
Vd ([2]; whole pelvic irradiation 2 Gy): 0.903 ± 0.055 L/kg
AUC ([3]; plasma, controls with solvent): 71400 ng·h/mL
Cmax ([3]; plasma, controls with solvent): 146 ± 35 µg/mL
MRT ([3]; plasma, controls with solvent): 36 min
clearance ([3]; plasma, controls with solvent): 23.4 ± 0.8 mL/min/kg
half-life ([3]; plasma, controls with solvent): 27.8 ± 3 min
AUC [3, 10]: 71400 ng·h/mL
Cmax [3, 10]: 151 ± 17 µg/mL
MRT [3, 10]: 37 min
clearance [3, 10]: 23.4 ± 1.1 mL/min/kg
half-life [3, 10]: 33.3 ± 16.1 min
AUC [3, 11]: 55100 ng·h/mL
Cmax [3, 11]: 132 ± 51 µg/mL
MRT [3, 11]: 26 min
clearance [3, 11]: 30.3 ± 0.3 mL/min/kg
half-life [3, 11]: 31 ± 8.8 min
Vd ([3]; plasma, plasma, controls with solvent): 0.836 ± 0.097 L/kg
Vd ([3]; plasma, plasma, controls without solvent): 0.859 ± 0.022 L/kg
AUC [3, 12]: 66000 ng·h/mL
Cmax [3, 12]: 122 ± 29 µg/mL
MRT [3, 12]: 36 min
clearance [3, 12]: 25.4 ± 2.8 mL/min/kg
half-life [3, 12]: 32.3 ± 9.9 min
Vd [3, 12]: 0.911 ± 0.127 L/kg
Vd ([3]; plasma, plasma, whole pelvic irradiation 2 Gy with solvent): 0.784 ± 0.11 L/kg
Compound: O=c1[nH]cc(F)c(=O)[nH]1 [5-FU, 5-fluorouracil]
alanine aminotransferase (ALT) levels vs control group ([4]; 0.5 Gy followed by 5-FU): no significant difference
alanine aminotransferase (ALT) levels vs control group ([4]; 2 Gy followed by 5-FU): no significant difference
alanine aminotransferase (ALT) levels vs control group ([4]; 5-FU-treated only): no significant difference
dose-normalized area under the curve (AUC) ([5]; 10 mg/kg): 0.43 ± 0.11 mg·h/L/mg
dose-normalized area under the curve (AUC) ([5]; 50 mg/kg): 0.50 ± 0.16 mg·h/L/mg
dose-normalized area under the curve (AUC) ([5]; 100 mg/kg): 1.14 ± 0.55 mg·h/L/mg
fraction catabolyzed by the liver via the dihydropyrimidine dehydrogenase (DPD) pathway [6]: About 80%

Compound: COc1ccc(S(=O)(=O)N2Cc3ccccc3C[C@@H]2C(=O)NO)cc1 [MMP-8 inhibitor]
effect on the decreased MRT of 5-FU caused by irradiation [3, 13]: completely reversed
effect on the increased clearance value of 5-FU caused by irradiation [3, 13]: completely reversed
effect of pretreatment on the decline in AUC of 5-FU caused by pelvic irradiation ([3]; MMP-8 inhibitor 10 mg/kg 2 h before 2 Gy, P<0.05): significantly attenuated
effect of MMP-8 inhibitor alone on the AUC of 5-FU ([3]; plasma, in comparison with the controls): Neither the MMP-8 inhibitor alone nor its vehicle had a significant effect

Compound: recombinant MMP-8: recombinant matrix metalloproteinase-8, 10 µg/mL added to HepG2 cells
effect on the AUC of intracellular 5-FU (HepG2 [7]): no significant effect
toxicity to HepG2 (HepG2 [8]): no significant toxicity
